Reference: patent US11957684B2, “Treatment of heavy menstrual bleeding associated with uterine fibroids” (Sumitomo Pharma Switzerland GmbH, priority 2016, dated 2024)

How the values were obtained:
[1] = literature (Struthers et al. 2009); cited from earlier work
FIG. 167 = assay: FIG. 167
Text: Table printed on a drawing sheet, FIG. 167
First reader's note: Units stand in the cells; each column is one drug and the rows are its properties.

FIG. 75 = assay: FIG. 75
Text: Table printed on a drawing sheet, FIG. 75
First reader's note: Each body row is one statistic (N, Mean, SD, quartiles, range) of the plasma concentration for one dose group, so N rows are subject counts and SD rows are errors; the dose group name is printed only on the N row and is repeated here for its group.

Text for FIG. 73: First reader's note: Each row is one summary statistic (N, mean, SD, quartiles, range) of the plasma concentration for one dose group; the N rows are subject counts, not ng/mL, and the columns are visit/sampling times.

Structure (SMILES)	Observed Half-life (FIG. 167)	Visit | Week 0: 0.5-[…] (FIG. 73)	Visit | Week 0: 2-5hr (FIG. 73)	Visit | Week 2: 0.5-[…] (FIG. 73)	Visit | Week 2: 2-5hr (FIG. 73)	Visit | Week 2: Predose (FIG. 73)	Visit | Week 4: 0.5-[…] (FIG. 73)	Visit | Week 4: 2-5hr (FIG. 73)	Visit | Week 4: Predose (FIG. 73)	Visit | Week 8: 0.5-[…] (FIG. 73)	Visit | Week 8: 2-5hr (FIG. 73)	Visit | Week 8: Predose (FIG. 73)	Visit | Week 12 (FIG. 73)	Visit | Week 16: Predose (FIG. 73)	Visit | Week 20: Predose (FIG. 73)	Visit | Week 24 (FIG. 73)	Visit | Week 2: Predose (FIG. 75)	Visit | Week 4: Predose (FIG. 75)	Visit | Week 8: Predose (FIG. 75)	Visit | Week 12 (FIG. 75)	other results
COc1cccc(-c2c(C)n(Cc3c(F)cccc3C(F)(F)F)c(=O)n(C[C@H](NCCCC(=O)O)c3ccccc3)c2=O)c1F [elagolix]																					half-life [1]: 2.4 to 6.3 h
COc1cccc(-c2c(C)n(Cc3c(F)cccc3C(F)(F)F)c(=O)n(C[C@H](NCCCC(=O)O)c3ccccc3)c2=O)c1F [Elagolix^2]	2 to 6 h																				
CONC(=O)Nc1ccc(-c2sc3c(c2CN(C)C)c(=O)n(-c2ccc(OC)nn2)c(=O)n3Cc2c(F)cccc2F)cc1 [Compound 1 20 mg]		2.784 ng/mL	2.154 ng/mL	2.912 ng/mL	2.981 ng/mL	0.8002 ng/mL	3.515 ng/mL	3.567 ng/mL	0.6640 ng/mL	3.437 ng/mL	2.643 ng/mL	0.8032 ng/mL	0.6904 ng/mL	0.6280 ng/mL	0.7132 ng/mL	0.6712 ng/mL	0.8990 ng/mL	0.3880 ng/mL	0.3380 ng/mL	0.8320 ng/mL	Visit | Week 0: 0.5-[…] (FIG. 75): 7.570 ng/mL; Visit | Week 24 (FIG. 75): 0.7470 ng/mL
CONC(=O)Nc1ccc(-c2sc3c(c2CN(C)C)c(=O)n(-c2ccc(OC)nn2)c(=O)n3Cc2c(F)cccc2F)cc1 [Relugolix^1]	37 to 42 h																				
CONC(=O)Nc1ccc(-c2sc3c(c2CN(C)C)c(=O)n(-c2ccc(OC)nn2)c(=O)n3Cc2c(F)cccc2F)cc1 [Compound 1 10 mg]		0.5290 ng/mL	0.5641 ng/mL		0.8025 ng/mL	0.3100 ng/mL		0.9672 ng/mL	0.2670 ng/mL	1.324 ng/mL	0.8301 ng/mL	0.3406 ng/mL	0.2783 ng/mL	0.3251 ng/mL	0.3138 ng/mL	0.2811 ng/mL	0.0898 ng/mL	0.1880 ng/mL		0.8620 ng/mL	Visit | Week 2: 0.5-[…] (FIG. 75): 0.9860 ng/mL; Visit | Week 2: 2-5hr (FIG. 75): 0.8280 ng/mL; Visit | Week 4: 0.5-[…] (FIG. 75): 0.9140 ng/mL; Visit | Week 4: 2-5hr (FIG. 75): 0.3720 ng/mL; Visit | Week 8: 0.5-[…] (FIG. 75): 2.192 ng/mL; Visit | Week 8: 2-5hr (FIG. 75): 1.320 ng/mL; Visit | Week 16: Predose (FIG. 75): 0.1500 ng/mL
CONC(=O)Nc1ccc(-c2sc3c(c2CN(C)C)c(=O)n(-c2ccc(OC)nn2)c(=O)n3Cc2c(F)cccc2F)cc1 [Compound 1 40 mg]		7.424 ng/mL	7.680 ng/mL	9.210 ng/mL	7.550 ng/mL	2.383 ng/mL	11.61 ng/mL	8.479 ng/mL	2.315 ng/mL	10.29 ng/mL	11.20 ng/mL	2.233 ng/mL	1.987 ng/mL	1.995 ng/mL	2.240 ng/mL	1.908 ng/mL			3.580 ng/mL	1.520 ng/mL	
